Reference: patent US20250382268A1, “METHODS AND COMPOSITIONS FOR SELECTIVELY INHIBITING PATHOGENIC MICROBES” (priority 2019, published 2025)
In brackets after ≈: the same amount, converted by molar mass. Where two headings read alike, the source gives them in different places.

Assays:
HepG2 cells = assay: Cytotoxicity MTT assay in HepG2 cells; assay type: cell-based; conditions: Homo sapiens
Protocol: Additionally, the antimicrobial compounds were analyzed for cytotoxicity. […] We utilized the standard MTT assay (Promega CellTiter 96) and GraphPad Prism 7 software to determine EC50 values for each analogue. Briefly, 20,000 HepG2 cells in 200 μl of the ATCC recommended media were seeded in each well of a 96-well plate with a moisture barrier created in the outermost wells. The cells were allowed to attach overnight at 37° C., and then observed under phase contrast microscopy for proper morphological characteristics. […] Once incubations were complete, the spectrophotometric absorbance of the samples was measured at a wavelength of 595 nm. […] For the HepaRG assay, NoSpin HepaRG™ cells (Lonza, cat #NSHPRG) were thawed and plated with 20,000 cells per well. They were allowed to attach for 4 h (optimal DME profile per Lonza's testing) before dosing following the identical protocol as above.

Burkholderia cenocepacia = assay: microbe, parasite or virus in culture; assay type: cell-based
[1] = test system: Burkholderia thailandensis; assay: microbe, parasite or virus in culture; assay type: cell-based
Staphylococcus aureus = assay: microbe, parasite or virus in culture
[2] = Toxicity study in mice, body weight over 7 days; assay type: in vivo; conditions: 6-week-old Balb/c mice
Excerpt: The vehicle is 40% PEG300 solution in 0.9% NaCl. […] Thus, the compounds are useful for in vivo antimicrobial administration.

Francisella tularensis = assay: microbe, parasite or virus in culture; assay type: cell-based; conditions: read-out: Francisella tularensis NR-577 MIC, strain NR-577
[3] = MRSA, read-out: Staphylococcus aureus MIC, MRSA strain HM-467
[4] = MRSA, read-out: Staphylococcus aureus MIC, MRSA strain NK-41886
[5] = MRSA, read-out: Staphylococcus aureus MIC, MRSA strain NR-13533
[6] = MRSA, read-out: Staphylococcus aureus MIC, MRSA strain NR-28983
[7] = MRSA, read-out: Staphylococcus aureus MIC, MRSA strain NR-41875
[8] = MRSA, read-out: Staphylococcus aureus MIC, MRSA strain NR-41876
[9] = MRSA, read-out: Staphylococcus aureus MIC, MRSA strain NR-41877
[10] = MRSA, read-out: Staphylococcus aureus MIC, MRSA strain NR-41878
[11] = read-out: Staphylococcus aureus MIC, VSSA NR-49121

## Oc1ccc(Sc2c[nH]c3ccccc23)cc1 [Compound 156I, 4-((1H-indol-3-yl)thio)phenol]
HepG2 cells
  EC50: 12.1 µg/mL (≈ 50.1 µM)
Burkholderia cenocepacia
  MBC: 150 µg/mL (≈ 622 µM)
  MIC: 50 µg/mL (≈ 207 µM)
[1]
  MBC: 100 µg/mL (≈ 414 µM)
  MIC: 50 µg/mL (≈ 207 µM)

## Brc1ccc(Sc2c[nH]c3ccccc23)cc1 [Compound 156K, 3-((4-bromophenyl)thio)-1H-indole]
HepG2 cells
  EC50: 27.6 µg/mL (≈ 90.7 µM)

## Brc1ccc(Sc2c[nH]c3ccc(Br)cc23)cc1 [Compound 172D, 5-bromo-3-((4-bromophenyl)thio)-1H-indole]
Staphylococcus aureus; [3]
  MIC: 12.5 µg/mL (≈ 32.6 µM)
Staphylococcus aureus; [4]
  MIC: 1.56 µg/mL (≈ 4.07 µM)
Staphylococcus aureus; [5]
  MIC: 1.56 µg/mL (≈ 4.07 µM)
Staphylococcus aureus; [6]
  MIC: 1.56 µg/mL (≈ 4.07 µM)
Staphylococcus aureus; [7]
  MIC: 3.13 µg/mL (≈ 8.17 µM)
Staphylococcus aureus; [8]
  MIC: 1.56 µg/mL (≈ 4.07 µM)
Staphylococcus aureus; [9]
  MIC: 3.13 µg/mL (≈ 8.17 µM)
Staphylococcus aureus; [10]
  MIC: 1.56 µg/mL (≈ 4.07 µM)
Staphylococcus aureus; [11]
  MIC: 1.56 µg/mL (≈ 4.07 µM)

## COc1ccc2[nH]cc(Sc3ccc(Br)cc3)c2c1 [Compound 172E, 3-((4-bromophenyl)thio)-5-methoxy-1H-indole]
HepG2 cells
  EC50: 23.3 µg/mL (≈ 69.7 µM)

## Oc1ccccc1Sc1c[nH]c2ccc(Br)cc12 [Compound 174AI, 2-((5-bromo-1H-indol-3-yl)thio)phenol]
[2]
  toxicity by body weight: did not have significant toxicity
HepG2 cells
  EC50: 27.4 µg/mL (≈ 85.6 µM)
Staphylococcus aureus; [3]
  MIC: 16 µg/mL (≈ 50 µM)
Staphylococcus aureus; [4]
  MIC: 8 µg/mL (≈ 25 µM)
Staphylococcus aureus; [5]
  MIC: 8 µg/mL (≈ 25 µM)
Staphylococcus aureus; [6]
  MIC: 8 µg/mL (≈ 25 µM)
Staphylococcus aureus; [7]
  MIC: 8 µg/mL (≈ 25 µM)
Staphylococcus aureus; [8]
  MIC: 8 µg/mL (≈ 25 µM)
Staphylococcus aureus; [9]
  MIC: 8 µg/mL (≈ 25 µM)
Staphylococcus aureus; [10]
  MIC: 8 µg/mL (≈ 25 µM)
Staphylococcus aureus; [11]
  MIC: 8 µg/mL (≈ 25 µM)

## Brc1ccc2[nH]cc(Sc3c[nH]c4ccccc34)c2c1 [Compound 174AL, 3-((1H-indol-3-yl)thio)-5-bromo-1H-indole]
HepG2 cells
  EC50: 26.1 µg/mL (≈ 76 µM)

## OCc1ccccc1Sc1c[nH]c2ccc(Br)cc12 [Compound 174AT, (2-((5-bromo-1H-indol-3-yl)thio)phenyl)methanol]
Staphylococcus aureus; [3]
  MIC: 32 µg/mL (≈ 95.7 µM)
Staphylococcus aureus; [4]
  MIC: 16 µg/mL (≈ 47.9 µM)
Staphylococcus aureus; [5]
  MIC: 16 µg/mL (≈ 47.9 µM)
Staphylococcus aureus; [6]
  MIC: 16 µg/mL (≈ 47.9 µM)
Staphylococcus aureus; [7]
  MIC: 16 µg/mL (≈ 47.9 µM)
Staphylococcus aureus; [8]
  MIC: 16 µg/mL (≈ 47.9 µM)
Staphylococcus aureus; [9]
  MIC: 16 µg/mL (≈ 47.9 µM)
Staphylococcus aureus; [10]
  MIC: 16 µg/mL (≈ 47.9 µM)
Staphylococcus aureus; [11]
  MIC: 16 µg/mL (≈ 47.9 µM)

## Fc1ccccc1Sc1c[nH]c2ccc(Br)cc12 [Compound 174AU, 5-bromo-3-((2-fluorophenyl)thio)-1H-indole]
[2]
  toxicity by body weight: did not have significant toxicity
Staphylococcus aureus; [3]
  MIC: 2 µg/mL (≈ 6.21 µM)
Staphylococcus aureus; [4]
  MIC: 2 µg/mL (≈ 6.21 µM)
Staphylococcus aureus; [5]
  MIC: 2 µg/mL (≈ 6.21 µM)
Staphylococcus aureus; [6]
  MIC: 2 µg/mL (≈ 6.21 µM)
Staphylococcus aureus; [7]
  MIC: 2 µg/mL (≈ 6.21 µM)
Staphylococcus aureus; [8]
  MIC: 2 µg/mL (≈ 6.21 µM)
Staphylococcus aureus; [9]
  MIC: 4 µg/mL (≈ 12.4 µM)
Staphylococcus aureus; [10]
  MIC: 2 µg/mL (≈ 6.21 µM)
Staphylococcus aureus; [11]
  MIC: 4 µg/mL (≈ 12.4 µM)

## FC(F)(F)c1ccccc1Sc1c[nH]c2ccc(Br)cc12 [Compound 174AV, 5-bromo-3-((2-(trifluoromethyl)phenyl)thio)-1H-indole]
Staphylococcus aureus; [3]
  MIC: 2 µg/mL (≈ 5.37 µM)
Staphylococcus aureus; [4]
  MIC: 2 µg/mL (≈ 5.37 µM)
Staphylococcus aureus; [5]
  MIC: 1 µg/mL (≈ 2.69 µM)
Staphylococcus aureus; [6]
  MIC: 1 µg/mL (≈ 2.69 µM)
Staphylococcus aureus; [7]
  MIC: 1 µg/mL (≈ 2.69 µM)
Staphylococcus aureus; [8]
  MIC: 2 µg/mL (≈ 5.37 µM)
Staphylococcus aureus; [9]
  MIC: 2 µg/mL (≈ 5.37 µM)
Staphylococcus aureus; [10]
  MIC: 2 µg/mL (≈ 5.37 µM)
Staphylococcus aureus; [11]
  MIC: 2 µg/mL (≈ 5.37 µM)

## FC(F)(F)c1ccc2[nH]cc(Sc3ccccc3Br)c2c1 [Compound 174AX, 3-((2-bromophenyl)thio)-5-(trifluoromethyl)-1H-indole]
Staphylococcus aureus; [3]
  MIC: 2 µg/mL (≈ 5.37 µM)
Staphylococcus aureus; [4]
  MIC: 2 µg/mL (≈ 5.37 µM)
Staphylococcus aureus; [5]
  MIC: 1 µg/mL (≈ 2.69 µM)
Staphylococcus aureus; [6]
  MIC: 2 µg/mL (≈ 5.37 µM)
Staphylococcus aureus; [7]
  MIC: 1 µg/mL (≈ 2.69 µM)
Staphylococcus aureus; [8]
  MIC: 2 µg/mL (≈ 5.37 µM)
Staphylococcus aureus; [9]
  MIC: 2 µg/mL (≈ 5.37 µM)
Staphylococcus aureus; [10]
  MIC: 1 µg/mL (≈ 2.69 µM)
Staphylococcus aureus; [11]
  MIC: 1 µg/mL (≈ 2.69 µM)

## Cc1ccccc1Sc1c[nH]c2ccc(Br)cc12 [Compound 174AY, 5-bromo-3-(o-tolylthio)-1H-indole]
Staphylococcus aureus; [3]
  MIC: 4 µg/mL (≈ 12.6 µM)
Staphylococcus aureus; [4]
  MIC: 4 µg/mL (≈ 12.6 µM)
Staphylococcus aureus; [5]
  MIC: 4 µg/mL (≈ 12.6 µM)
Staphylococcus aureus; [6]
  MIC: 4 µg/mL (≈ 12.6 µM)
Staphylococcus aureus; [7]
  MIC: 4 µg/mL (≈ 12.6 µM)
Staphylococcus aureus; [8]
  MIC: 2 µg/mL (≈ 6.28 µM)
Staphylococcus aureus; [9]
  MIC: 2 µg/mL (≈ 6.28 µM)
Staphylococcus aureus; [10]
  MIC: 2 µg/mL (≈ 6.28 µM)
Staphylococcus aureus; [11]
  MIC: 2 µg/mL (≈ 6.28 µM)

## Cc1[nH]c2ccc(Br)cc2c1Sc1ccccc1Br [Compound 174AZ, 5-bromo-3-((2-bromophenyl)thio)-2-methyl-1H-indole]
[2]
  toxicity by body weight: did not have significant toxicity
HepG2 cells
  EC50: 25.8 µg/mL (≈ 65 µM)
Staphylococcus aureus; [7]
  MIC: 4 µg/mL (≈ 10.1 µM)
Staphylococcus aureus; [8]
  MIC: 2 µg/mL (≈ 5.04 µM)
Staphylococcus aureus; [11]
  MIC: 2 µg/mL (≈ 5.04 µM)

## Clc1ccc2[nH]cc(Sc3ccc(Br)cc3)c2c1 [Compound 174C, 3-((4-bromophenyl)thio)-5-chloro-1H-indole]
HepG2 cells
  EC50: 25.4 µg/mL (≈ 75 µM)

## Brc1ccc(Sc2c[nH]c3cccc(Br)c23)cc1 [Compound 174D, 4-bromo-3-((4-bromophenyl)thio)-1H-indole]
HepG2 cells
  EC50: 23.2 µg/mL (≈ 60.6 µM)

## Fc1ccc2[nH]cc(Sc3ccc(Br)cc3)c2c1 [Compound 174E, 3-((4-bromophenyl)thio)-5-fluoro-1H-indole]
HepG2 cells
  EC50: 23.6 µg/mL (≈ 73.2 µM)

## Clc1ccc(Sc2c[nH]c3ccc(Br)cc23)cc1 [Compound 174J, 5-bromo-3-((4-chlorophenyl)thio)-1H-indole]
HepG2 cells
  EC50: 25.3 µg/mL (≈ 74.7 µM)

## Brc1cccc(Sc2c[nH]c3ccc(Br)cc23)c1 [Compound 174N, 5-bromo-3-((3-bromophenyl)thio)-1H-indole]
HepG2 cells
  EC50: 29.5 µg/mL (≈ 77 µM)
Staphylococcus aureus; [3]
  MIC: 3.13 µg/mL (≈ 8.17 µM)
Staphylococcus aureus; [4]
  MIC: 3.13 µg/mL (≈ 8.17 µM)
Staphylococcus aureus; [5]
  MIC: 3.13 µg/mL (≈ 8.17 µM)
Staphylococcus aureus; [6]
  MIC: 3.13 µg/mL (≈ 8.17 µM)
Staphylococcus aureus; [7]
  MIC: 3.13 µg/mL (≈ 8.17 µM)
Staphylococcus aureus; [8]
  MIC: 3.13 µg/mL (≈ 8.17 µM)
Staphylococcus aureus; [9]
  MIC: 3.13 µg/mL (≈ 8.17 µM)
Staphylococcus aureus; [10]
  MIC: 3.13 µg/mL (≈ 8.17 µM)
Staphylococcus aureus; [11]
  MIC: 1.56 µg/mL (≈ 4.07 µM)

## Fc1ccc(Sc2c[nH]c3ccc(Br)cc23)cc1 [Compound 174P, 5-bromo-3-((4-fluorophenyl)thio)-1H-indole]
HepG2 cells
  EC50: 38.3 µg/mL (≈ 119 µM)

## Clc1ccc(Sc2c[nH]c3ccc(Br)cc23)c(Cl)c1 [Compound 174V, 5-bromo-3-((2,4-dichlorophenyl)thio)-1H-indole]
HepG2 cells
  EC50: 24.8 µg/mL (≈ 66.5 µM)

## Nc1cc(Br)ccc1Sc1c[nH]c2ccc(Br)cc12 [Compound 174X, 5-bromo-2-((5-bromo-1H-indol-3-yl)thio)aniline]
HepG2 cells
  EC50: 30.2 µg/mL (≈ 75.9 µM)

## Oc1ccccc1Sc1c[nH]c2ccc(C(F)(F)F)cc12 [Compound 177A, 2-((5-(trifluoromethyl)-1H-indol-3-yl)thio)phenol]
HepG2 cells
  EC50: 24.1 µg/mL (≈ 77.9 µM)

## Oc1ccc(Sc2c[nH]c3ccc(C(F)(F)F)cc23)cc1 [Compound 177B, 4-((5-(trifluoromethyl)-1H-indol-3-yl)thio)phenol]
HepG2 cells
  EC50: 27.7 µg/mL (≈ 89.6 µM)

## Nc1ccccc1Sc1c[nH]c2ccc(C(F)(F)F)cc12 [Compound 177C, 2-((5-(trifluoromethyl)-1H-indol-3-yl)thio)aniline]
HepG2 cells
  EC50: 48.2 µg/mL (≈ 156 µM)

## Fc1ccccc1Sc1c[nH]c2ccc(C(F)(F)F)cc12 [Compound 177D, 3-((2-fluorophenyl)thio)-5-(trifluoromethyl)-1H-indole]
HepG2 cells
  EC50: 27.1 µg/mL (≈ 87.1 µM)

## Fc1ccc2[nH]cc(Sc3ccccc3Br)c2c1 [Compound 177E, 3-((2-bromophenyl)thio)-5-fluoro-1H-indole]
HepG2 cells
  EC50: 31.6 µg/mL (≈ 98.1 µM)

## FC(F)(F)c1ccc2[nH]cc(Sc3ccccc3C(F)(F)F)c2c1 [Compound 177F, 5-(trifluoromethyl)-3-((2-(trifluoromethyl)phenyl)thio)-1H-indole]
HepG2 cells
  EC50: 29.8 µg/mL (≈ 82.5 µM)

## CCc1ccccc1Sc1c[nH]c2ccc(C(F)(F)F)cc12 [Compound 177G, 3-((2-ethylphenyl)thio)-5-(trifluoromethyl)-1H-indole]
HepG2 cells
  EC50: 29.5 µg/mL (≈ 91.8 µM)

## OCc1[nH]c2ccc(Br)cc2c1Sc1ccccc1Br [Compound 177H, (5-bromo-3-((2-bromophenyl)thio)-1H-indol-2-yl)methanol]
HepG2 cells
  EC50: 31.8 µg/mL (≈ 77 µM)

## CCc1ccccc1Sc1c(CO)[nH]c2ccc(C(F)(F)F)cc12 [Compound 177I, (3-((2-ethylphenyl)thio)-5-(trifluoromethyl)-1H-indol-2-yl)methanol]
HepG2 cells
  EC50: 31.3 µg/mL (≈ 89.1 µM)

## c1ccc(Oc2c[nH]c3ccccc23)cc1 [Compound 925C, 3-phenoxy-1H-indole]
Francisella tularensis
  MIC: 8 µg/mL (≈ 38.2 µM)
